Measured values from patent publication US9566334B2, “Combinations of a PI3K/AKT inhibitor compound with an HER3/EGFR inhibitor compound and use thereof in the treatment of a hyperproliferative disorder” (THE GENERAL HOSPITAL CORPORATION, priority 2012, dated 2017).
“Also recorded” adds a separate entry of the source.

Columns and labels:
TNBC cell lines = test: Cell viability by CellTiter-Glo and Crystal Violet; assay type: cell-based; details: across all TNBC cell lines; read-out: IC50s, inhibition of cell viability
Procedure: (§1) Several TNBC cell lines were treated with MEHD7945A, a dual-action antibody that targets both EGFR and HER3, AKT inhibitor GDC-0068, and pan-PI3K inhibitor GDC -0941. Cell viability was measured by CellTiter-Glo and Crystal Violet. Both cell line- and patient -derived xenograft models of TNBC were treated with MEHD7945A, GDC-0068, GDC-0941, or the combination of MEHD7945A with either GDC-0068 or GDC-0941. Tumor size and histology were examined. Protein expression was measured by Western blot, Mass Spectometry, CEER and immunohistochemistry.
(§2) For proliferation, 5×10^5 cells were seeded in 96-well plates and treated with the indicated concentrations of GDC-0068, GDC-0941, and/or MEHD7945A. After 5 days, cells were fixed and stained with Crystal Violet. Cell proliferation was also analyzed with CellTiter-Glo Luminescent Cell Viability Assay (Promega) as described by the manufacturer. For heregulin (HRG, Peprotech) and epidermal growth factor (EGF, Peprotech)-induced proliferation, 5×10^5 cells were treated with GDC-0068, GDC-0941, and/or MEHD7945A in the presence of 4 ng/ml of ligands for 5 days and then stained with Crystal Violet.

[1] = system: patient-derived xenografts (PDX) of TNBC; test: Patient-derived xenograft tumor growth; assay type: in vivo, mice; details: MEHD7945A 10 mg/Kg twice weekly, GDC-0941 75 mg/Kg daily, GDC-0068 40 mg/kg daily
Procedure: The activity of the same treatments in patient-derived xenografts (PDX) of TNBC was then tested.
(§3) For patient-derived xenograft (PDX) studies, tumors were subcutaneously implanted in 6-week old female athymic nude mice. Upon xenograft growth, tumor tissue was reimplanted into recipient mice, which were randomized upon implant growth. For the collection of circulating tumor cells (CTCs), tumors were implanted into the mammary pad of athymic nude mice.
(§4) Once tumors reached an average volume of about 150-250 mm^3, mice were randomized into treatment arms, with n=7-11 tumors/group. GDC-0068 [40 mg/kg] or GDC-0941 [75 mg/kg] were dissolved in 0.5% methylcellulose and 0.2% Tween-80 (MCT) solution and administered once daily via oral gavage. […] Tumors were measured by digital caliper over the entire treatment period. Tumor volume was determined using the formula: (length×width^2)×(π/6). Tumor volumes are plotted as means±SEM.

[2] = system: EGFR, HER3 and downstream signaling pathways; test: Western blot of EGFR, HER3 and downstream signaling in cells; assay type: cell-based; details: 24 hours, 1 uM; for expression of HER3: HCC70 and MDA-MB-468 cells; for activation of EGFR and HER3: HCC70 cells
Procedure: HCC70 and MDA-MB-468 TNBC cell lines, characterized by elevated levels of EGFR and loss of PTEN expression, were treated with GDC-0068, GDC-0941, MEHD7945A, and the combinations of these inhibitors.
Cells were washed with ice-cold phosphate buffered saline (PBS) and scraped into ice-cold RIPA lysis buffer (Cell Signaling) supplemented with phosphatase inhibitor cocktails (Complete Mini, and PhosphoStop (Roche)). Lysates were cleared by centrifugation at 13,000 rpm for 10 minutes at 4° C., supernatants removed and assayed for protein concentration using the Pierce BCA Protein Assay Kit (Thermo Scientific). Thirty-five micrograms of total lysate was resolved on NuPAGE 4-12% Bis-Tris gels (Life Technologies) and electrophoretically transferred to Immobilon transfer membranes (Millipore). Membranes were blocked for 1 hour in 5% nonfat dry milk in TBS-Tween and then hybridized using the following primary antibodies in 5% bovine serum albumin (BSA) TBS-Tween: phospho-Akt (Ser473), phospho-Akt (Thr308), Akt, phospho-S6 (Ser(240/4), phospho-S6 (Ser235/6), S6, phospho-PRAS40 (Thr246), PRAS40, phospho-Erk (Thr202/Tyr204), Erk, phospho-EGFR (Tyr1068), EGFR, phospho-HER3 (Tyr1289), HER3 (1:500-1:1000, Cell Signaling). Beta-actin was used as a loading control (1:5000, Sigma), also in 5% BSA TBS-Tween. Mouse and rabbit horseradish peroxidase (HRP)-conjugated secondary antibodies (1:50,000, Amersham Biosciences) were diluted in 2% nonfat dry milk in TBS-Tween. Protein—antibody complexes were detected by chemiluminescence with SuperSignal West FemtoChemiluminescent Substrate (Thermo Scientific) and images were captured with a G-BOX camera system.

[3] = system: MDA-MB-468- and HCC70-derived xenografts; test: Cell line-derived xenograft tumor growth; assay type: in vivo, mice; details: MDA-MB-468 and HCC70 xenografts; p less than 0.01 combination vs monotherapy
Procedure: To expand these findings in vivo, the efficacy of MEHD7945A was tested in combination with either the Akt or PI3K inhibitor in both MDA-MB-468- and HCC70-derived xenografts.
(§5) For cell line-derived xenograft studies, mice were injected subcutaneously with 1×10^7 HCC70 or MDA-MB-468 suspended in 150 μL culture media/Matrigel (BD Biosciences) in a 4:1 ratio. One μmol/L of 17β-estradiol was supplemented in the mouse drinking water as described (Garcia-Garcia et al., Clinical cancer research: an official journal of the American Association for Cancer Research 18, 2603 (2012)).
as §4

EGFR and HER3 = test: CEER analysis of active and total EGFR and HER3 in xenograft tumors; assay type: in vivo, mice; details: for active and total levels of HER3 and EGFR (CEER): TNBC PDX, tumors harvested 2 h after the last drug administration
Procedure: The levels of EGFR and HER3 expression/activation in HCC70 tumors collected at the end of the experiments (day 39) was investigated. […] Frozen tissue was analyzed by Cooperative, Enhanced, Enzyme Immunoreactive (CEER), a platform that utilizes reverse-phase detection of nanogram quantities of protein.
The levels of pathway protein expression and their activation in xenografts were determined by CEER. (Kim et al., ASCO Annual Meeting abstract P2-06-13, (2010)) CEER utilizes the formation of unique immuno-complexes between capture antibodies printed on a nitrocellulose microarray surface, the target molecule in cell lysate reacted with the slide, and two independent detector-antibodies. One of the detector-antibody is conjugated to glucose oxidase, and the other is conjugated to horseradish peroxidase. Target detection (expressed as computational unit, CU) requires the presence of both detector-antibodies and the enzyme channeling event between glucose oxidase and horseradish peroxidase will not occur unless both antibodies are in close proximity.

[4] = system: MDA-MB-468, HCC70 and patient-derived xenograft; test: In vivo activity in three different models of TNBC; parameters: species or system mice; details: three TNBC models; MEHD7945A 10 mg/kg i.p. twice weekly, GDC-0068 40 mg/kg, GDC-0941 75 mg/kg oral once daily
Procedure: as §1
To test the activity of these compounds in vivo, three different models of TNBC were used: two cell line (MDA-MB-468 and HCC70)-based and a patient-derived xenograft.
All mouse studies were conducted through institutional Animal Care and Use Committee (IACUC) approved animal protocols in accordance with institutional guidelines. Six-week-old female athymic nude mice were purchased from Charles River Laboratories and housed in air-filtered laminar flow cabinets with a 12-hour light cycle and food and water ad libitum.
as §5, §3, §4

[5] = system: HCC70 and MDA-MB-468 cells; test: Five days proliferation analysis (Crystal Violet / CellTiter-Glo); assay type: cell-based; details: 5 days; MEHD7945A 10 nM, GDC-0068 and GDC-0941 1 uM
Procedure: Whether the combination of MEHD7945A with GDC-0068 or GDC-0941 would result in enhanced antiproliferative activity was tested in both HCC70 and MDA-MB-468 cells.
as §2

[6] = HCC70 tumors collected at day 39

SMILES | IC50 (TNBC cell lines) | tumor growth [1] | expression of HER3 [2] | activation of EGFR and HER3 [2] | tumor growth inhibition [3] | EGFR and HER3 expression and phosphorylation (CEER) (EGFR and HER3; [6]) | active and total levels of HER3 and EGFR (CEER) (EGFR and HER3) | tumor growth [4] | inhibition of cell proliferation/viability [5] | total EGFR receptor levels (CEER) (EGFR and HER3; [6])
CS(=O)(=O)N1CCN(Cc2cc3nc(-c4cccc5[nH]ncc45)nc(N4CCOCC4)c3s2)CC1 [GDC-0941, 4-(2-(1H-indazol-4-yl)-6-((4-(methylsulfonyl)piperazin-1-yl)methyl)thieno[3,2-d]pyrimidin-4-yl)morpholine] | ≥ 170 nM | delayed tumor growth | increased expression of HER3 | activation of both EGFR and HER3 | responded only modestly | overall increase of both EGFR and HER3 expression and phosphorylation | increased | variable delay in tumor growth | varying sensitivity | –
CC(C)NC[C@@H](C(=O)N1CCN(c2ncnc3c2[C@H](C)C[C@H]3O)CC1)c1ccc(Cl)cc1 [GDC-0068] | ≥ 170 nM | superior antitumor activity compared with GDC-0941 | increased expression of HER3 | activation of both EGFR and HER3 | responded only modestly | overall increase of both EGFR and HER3 expression and phosphorylation | increased; also recorded: lower ability to induce EGFR and HER3 phosphorylation | variable delay in tumor growth | varying sensitivity | no changes in the total receptor levels were observed
